Structures can show the parent of a compound that is named as a salt.
These compounds were tested against T1, NLRP3 (Homo sapiens, UniProt Q96P20) (assay: THP-1 Cells Pyroptosis Assay). Conditions: THP-1 cells with 1.0 μg/ml LPS; compound 3 hours; nigericin 5 μM 1 hr; resazurin readout.
T1 construct: Seed THP-1 cells (25,000 cells/well) containing 1.0 μg/ml LPS in 40 μl of RPMI medium; host or cells: THP-1 cells
T1 sequence (Q96P20 whole entry): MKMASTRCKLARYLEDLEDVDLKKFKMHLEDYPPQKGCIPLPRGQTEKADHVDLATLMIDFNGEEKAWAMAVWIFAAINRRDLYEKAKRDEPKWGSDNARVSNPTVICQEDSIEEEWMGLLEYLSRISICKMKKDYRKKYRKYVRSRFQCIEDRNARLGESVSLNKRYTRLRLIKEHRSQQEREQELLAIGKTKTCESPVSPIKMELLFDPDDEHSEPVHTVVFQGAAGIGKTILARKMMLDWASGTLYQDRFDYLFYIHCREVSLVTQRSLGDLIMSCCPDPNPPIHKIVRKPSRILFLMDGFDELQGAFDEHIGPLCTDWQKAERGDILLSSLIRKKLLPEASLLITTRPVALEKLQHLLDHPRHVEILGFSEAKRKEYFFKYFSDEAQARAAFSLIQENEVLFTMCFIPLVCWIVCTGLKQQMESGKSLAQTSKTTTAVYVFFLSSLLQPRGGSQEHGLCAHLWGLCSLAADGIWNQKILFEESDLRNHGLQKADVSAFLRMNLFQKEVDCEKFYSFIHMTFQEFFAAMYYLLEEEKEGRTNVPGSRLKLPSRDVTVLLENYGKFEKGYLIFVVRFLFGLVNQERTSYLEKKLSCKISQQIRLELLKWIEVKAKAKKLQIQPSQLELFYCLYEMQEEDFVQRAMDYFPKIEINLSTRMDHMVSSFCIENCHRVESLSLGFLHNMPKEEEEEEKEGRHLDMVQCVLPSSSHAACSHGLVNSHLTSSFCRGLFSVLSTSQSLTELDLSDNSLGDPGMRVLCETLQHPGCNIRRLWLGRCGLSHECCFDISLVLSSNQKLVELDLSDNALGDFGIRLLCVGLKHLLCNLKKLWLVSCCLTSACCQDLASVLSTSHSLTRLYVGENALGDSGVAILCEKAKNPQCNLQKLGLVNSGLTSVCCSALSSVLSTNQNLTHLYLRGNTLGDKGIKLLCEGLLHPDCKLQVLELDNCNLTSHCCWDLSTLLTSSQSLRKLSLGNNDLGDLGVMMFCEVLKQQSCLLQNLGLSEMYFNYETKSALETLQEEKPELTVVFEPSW
Format: cell-based
Method in brief: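 THP-1 cells in serum-free RPMI primed with LPS (1 μg/ml FAC), incubated with compound 3 h at 37 °C, then nigericin (5 μM FAC) for 1 h. Supernatant removed after spin; viability read by resazurin (100 μM FAC) reduction after a further 1-2 h at 37 °C.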
`Cc1cc(Cl)cc(O)c1-c1ccc2oc(N[C@@H]3CCCN(CC(C)O)C3)nc2n1` (stereo partly drawn) [Example 97, 5-Chloro-3-methyl-2-[2-[[(3R)-1-(2-hydroxypropyl)-3-piperidyl]amino]oxazolo[4,5-b]pyridin-5-yl]phenol] showed an IC50 of 93.9 nM. For `Cc1cc(C(F)(F)F)cc(O)c1-c1ccc2oc(N[C@@H]3CCCN(C)C3)nc2n1` [Example 15, 3-Methyl-2-[2-[[(3R)-1-methyl-3-piperidyl]amino]oxazolo[4,5-b]pyridin-5-yl]-5-(trifluoromethyl)phenol], the IC50 was 0.7 nM. `CCCN1CCC[C@@H](Nc2nc3nc(-c4c(C)cc(Cl)cc4O)ccc3o2)C1` [Example 46, 5-Chloro-3-methyl-2-[2-[[(3R)-1-propyl-3-piperidyl]amino]oxazolo[4,5-b]pyridin-5-yl]phenol] showed an IC50 of 1 nM. In the case of `CCN1CCC[C@@H](Nc2nc3nc(-c4c(C)cc(C(F)(F)F)cc4O)cc(N(C)C)c3o2)C1` [Example 116, 2-[7-(Dimethylamino)-2-[[(3R)-1-ethyl-3-piperidyl]amino]oxazolo[4,5-b]pyridin-5-yl]-3-methyl-5-(trifluoromethyl)phenol], the IC50 is reported as 6.9 nM. Work on `CCN1CCC12CCN(c1nc3nc(-c4c(C)cc(C(F)(F)F)cc4O)ccc3o1)CC2` [Example 79, 2-[2-(1-Ethyl-1,7-diazaspiro[3.5]nonan-7-yl)oxazolo[4,5-b]pyridin-5-yl]-3-methyl-5-(trifluoromethyl)phenol] yielded an IC50 of 94.9 nM. In the case of `CCN1C[C@@H](O)C[C@@H](Nc2nc3nc(-c4c(C)cc(Cl)cc4O)ccc3o2)C1` [Example 134, (3S,5R)-5-[[5-(4-Chloro-2-hydroxy-6-methyl-phenyl)oxazolo[4,5-b]pyridin-2-yl]amino]-1-ethyl-piperidin-3-ol], the IC50 is reported as 1.9 nM. `CCN1C[C@@H](O)C[C@@H](Nc2nc3nc(-c4c(C)cc(C(F)(F)F)cc4O)ccc3o2)C1` [Example 51, (3S,5R)-1-Ethyl-5-[[5-[2-hydroxy-6-methyl-4-(trifluoromethyl)phenyl]oxazolo[4,5-b]pyridin-2-yl]amino]piperidin-3-ol] was tested, and the IC50 was 1.8 nM. In the case of `CCN1CCC[C@@H](Nc2nc3nc(-c4c(C)cc(C(F)(F)F)cc4O)cc(N4CC(O)C4)c3o2)C1` [Example 101, 1-[2-[[(3R)-1-Ethyl-3-piperidyl]amino]-5-[2-hydroxy-6-methyl-4-(trifluoromethyl)phenyl]-oxazolo[4,5-b]pyridin-7-yl]azetidin-3-ol], the IC50 is reported as 6 nM. `CCN1CCC[C@@H](Nc2nc3nc(-c4c(C)cc(C#N)cc4O)ccc3o2)C1` [Example 25, 4-[2-[[(3R)-1-Ethyl-3-piperidyl]amino]oxazolo[4,5-b]pyridin-5-yl]-3-hydroxy-5-methyl-benzonitrile] showed an IC50 of 1.6 nM. Work on `Cc1cc(C(F)(F)F)cc(O)c1-c1ccc2oc(NC[C@H]3C[C@@](C)(O)C3)nc2n1` [Example 57, cis-2-[2-[(3-Hydroxy-3-methyl-cyclobutyl)methylamino]oxazolo[4,5-b]pyridin-5-yl]-3-methyl-5-(trifluoromethyl)phenol] yielded an IC50 of 50.3 nM. Work on `Cc1cc(C#N)cc(O)c1-c1ccc2oc(N[C@@H]3C[C@H](O)CN(C)C3)nc2n1` [Example 56, 3-Hydroxy-4-[2-[[(3R,5S)-5-hydroxy-1-methyl-3-piperidyl]amino]oxazolo[4,5-b]pyridin-5-yl]-5-methyl-benzonitrile] yielded an IC50 of 18.9 nM. Compound `CCN1CCC[C@@H](Nc2nc3nc(-c4c(O)cc(F)cc4Cl)ccc3o2)C1` [Example 129, 3-Chloro-2-[2-[[(3R)-1-ethyl-3-piperidyl]amino]oxazolo[4,5-b]pyridin-5-yl]-5-fluoro-phenol;2,2,2-trifluoroacetic acid] has an IC50 of 1.7 nM. “2-[2-[[(3R or 3S)-1-Ethyl-3-piperidyl]amino]-1H-imidazo[4,5-b]pyridin-5-yl]-3-methyl-5-(trifluoromethyl)phenol [Example 18A]” showed an IC50 of 4.1 nM. In the case of `Cc1cc(C(F)(F)F)cc(O)c1-c1ccc2oc(NC[C@H]3C[C@](C)(O)C3)nc2n1` [Example 58, trans-2-[2-[(3-hydroxy-3-methyl-cyclobutyl)methylamino]oxazolo[4,5-b]pyridin-5-yl]-3-methyl-5-(trifluoromethyl)phenol], the IC50 is reported as 95.9 nM. With `Cc1cc(Cl)cc(O)c1-c1ccc2oc(N[C@@H]3C[C@H](O)CN(C)C3)nc2n1` [Example 49, (3S,5R)-5-[[5-(4-Chloro-2-hydroxy-6-methyl-phenyl)oxazolo[4,5-b]pyridin-2-yl]amino]-1-methyl-piperidin-3-ol] the IC50 was 1.6 nM. Compound `Cc1cc(Cl)cc(O)c1-c1ccc2oc(N[C@@H]3CCCN(C)C3)nc2n1` [Example 44, 5-Chloro-3-methyl-2-[2-[[(3R)-1-methyl-3-piperidyl]amino]oxazolo[4,5-b]pyridin-5-yl]phenol] has an IC50 of 0.7 nM. Compound `Cc1cc(C(F)(F)F)cc(O)c1-c1ccc2oc(N[C@@H]3C[C@H]3N(C)C)nc2n1` [Example 55, 2-[2-[[(1R,2R)-2-(Dimethylamino)cyclopropyl]amino]oxazolo[4,5-b]pyridin-5-yl]-3-methyl-5-(trifluoromethyl)phenol] has an IC50 of 17.8 nM. Compound `CCN1CCC[C@@H](Nc2nc3nc(-c4c(O)cc(Cl)cc4Cl)ccc3o2)C1` [Example 132, 3,5-Dichloro-2-[2-[[(3R)-1-ethyl-3-piperidyl]amino]oxazolo[4,5-b]pyridin-5-yl]phenol;2,2,2-trifluoroacetic acid] has an IC50 of 0.7 nM. Compound `CN1CCC[C@@H](Nc2nc3nc(-c4c(O)cc(Cl)cc4CO)ccc3o2)C1` [Example 94, 5-Chloro-3-(hydroxymethyl)-2-[2-[[(3R)-1-methyl-3-piperidyl]amino]oxazolo[4,5-b]pyridin-5-yl]phenol] has an IC50 of 11.9 nM. Compound `Cc1cc(Cl)cc(O)c1-c1ccc2oc(N[C@@H]3CCCN(C4COC4)C3)nc2n1` [Example 63, 5-Chloro-3-methyl-2-[2-[[(3R)-1-(oxetan-3-yl)-3-piperidyl]amino]oxazolo[4,5-b]pyridin-5-yl]phenol] has an IC50 of 57.5 nM. Compound `CCN1CCC[C@@H](Nc2nc3nc(-c4ccc(Cl)cc4O)c(Cl)cc3o2)C1` [Example 127, 5-Chloro-2-[6-Chloro-2-[[(3R)-1-ethyl-3-piperidyl]amino]oxazolo[4,5-b]pyridin-5-yl]phenol] has an IC50 of 20.6 nM. `CCN1CCC[C@@H](Nc2nc3nc(-c4c(C)cc(OC(F)F)cc4O)ccc3o2)C1` [Example 130, 5-(Difluoromethoxy)-2-[2-[[(3R)-1-ethyl-3-piperidyl]amino]oxazolo[4,5-b]pyridin-5-yl]-3-methyl-phenol;2,2,2-trifluoroacetic acid] showed an IC50 of 1.9 nM. Compound `Cc1cc(C(F)F)cc(O)c1-c1ccc2oc(N[C@@H]3CCCN(C)C3)nc2n1` [Example 121, 5-(Difluoromethyl)-3-methyl-2-[2-[[(3R)-1-methyl-3-piperidyl]amino]oxazolo[4,5-b]pyridin-5-yl]phenol] has an IC50 of 2.7 nM. In the case of `CCN1CCC[C@@H](Nc2nc3nc(-c4c(C)cc(C(F)(F)F)cc4O)cc(NC)c3o2)C1` [Example 103, 2-[2-[[(3R)-1-Ethyl-3-piperidyl]amino]-7-(methylamino)oxazolo[4,5-b]pyridin-5-yl]-3-methyl-5-(trifluoromethyl)phenol], the IC50 is reported as 4.6 nM. In the case of `Cc1cc(C(F)(F)F)cc(O)c1-c1ccc2oc(N3CC[C@H]4CCN(C)C[C@H]43)nc2n1` (single isomer, unassigned) [Example 37B, 2-[2-[(3aR,7aS)-6-methyl-3,3a,4,5,7,7a-hexahydro-2H-pyrrolo[2,3-c]pyridin-1-yl]oxazolo[4,5-b]pyridin-5-yl]-3-methyl-5-(trifluoromethyl)-phenol or 2-[2-[(3aS,7aR)-6-Methyl-3,3a,4,5,7,7a-hexahydro-2H-pyrrolo[2,3-c]pyridin-1-yl]oxazolo[4,5-b]pyridin-5-yl]-3-methyl-5-(trifluoromethyl)phenol], the IC50 is reported as 1.1 nM. Work on `CCN1C[C@@H](O)C[C@@H](Nc2nc3nc(-c4c(C)cc(C)cc4O)ccc3o2)C1` [Example 70] yielded an IC50 of 3.8 nM. `CCN1CCC[C@@H](Nc2nc3nc(-c4c(O)cc(C#N)cc4COC)ccc3o2)C1` [Example 110, 4-[2-[[(3R)-1-Ethyl-3-piperidyl]amino]oxazolo[4,5-b]pyridin-5-yl]-3-hydroxy-5-(methoxymethyl)benzonitrile;2,2,2-trifluoroacetic acid] was tested, and the IC50 was 5.8 nM. In the case of `CCN1C[C@@H](O)C[C@@H](Nc2nc3nc(-c4c(C)cc(C#N)cc4O)ccc3o2)C1` [Example 28, 4-[2-[[(3R,5S)-1-Ethyl-5-hydroxy-3-piperidyl]amino]oxazolo[4,5-b]pyridin-5-yl]-3-hydroxy-5-methyl-benzonitrile;formic acid salt], the IC50 is reported as 4.6 nM. Compound `CN1CCC[C@@H](Nc2nc3nc(-c4c(O)cc(F)cc4C(F)(F)F)ccc3o2)C1` [Example 126, 5-Fluoro-2-[2-[[(3R)-1-methyl-3-piperidyl]amino]oxazolo[4,5-b]pyridin-5-yl]-3-(trifluoromethyl)phenol;2,2,2-trifluoroacetic acid] has an IC50 of 3.9 nM. For `CC(=O)c1cc(-c2c(C)cc(C(F)(F)F)cc2O)nc2nc(N[C@@H]3CCCN(C)C3)oc12` [Example 102, 1-[5-[2-Hydroxy-6-methyl-4-(trifluoromethyl)phenyl]-2-[[(3R)-1-methyl-3-piperidyl]amino]oxazolo[4,5-b]pyridin-7-yl]ethanone;2,2,2-trifluoroacetic acid], the IC50 was 6.5 nM. Work on `Cc1ccc(C#N)c(O)c1-c1ccc2oc(N[C@@H]3CCCN(C)C3)nc2n1` [Example 82, 2-Hydroxy-4-methyl-3-[2-[[(3R)-1-methyl-3-piperidyl]amino]oxazolo[4,5-b]pyridin-5-yl]benzonitrile;2,2,2-trifluoroacetic acid] yielded an IC50 of 128 nM. With `CCN1CCC[C@@H](Nc2nc3nc(-c4ccc5c(c4O)CCO5)c(C)cc3o2)C1` [Example 35, 5-[2-[[(3R)-1-Ethyl-3-piperidyl]amino]-6-methyl-oxazolo[4,5-b]pyridin-5-yl]-2,3-dihydrobenzofuran-4-ol] the IC50 was 27.3 nM. `Cc1cc(C(F)(F)F)cc(O)c1-c1ccc2oc(N3CCCC(CO)C3)nc2n1` (stereo not drawn) [Example 77, 2-[2-[3-(Hydroxymethyl)-1-piperidyl]oxazolo[4,5-b]pyridin-5-yl]-3-methyl-5-(trifluoromethyl)phenol] gave an IC50 of 135 nM.

Reference: patent publication US20240279237A1, “FUSED BICYCLIC HETEROARYL COMPOUNDS USEFUL AS NLRP3 INHIBITORS” (Hoffmann-La Roche Inc., priority 2021, published 2024)
